Measured values from ChEMBL document CHEMBL1201862, “PubChem BioAssay data set” (2004).
The source made the active and inactive calls.

How the values were obtained:
[1] = test system: Streptococcus sp. 'group A'; assay: growth inhibition of control SK(-) GAS strain, dose response, counter-screen for streptokinase expression inhibitor project, luminescence, kanamycin, BacTiterGlo, confirmation (AID 1900); type: functional, organism-based
Streptokinase A = molecular target: T1, Streptokinase A (Streptococcus pyogenes serotype M1, UniProt P10520); assay: S. pyogenes streptokinase expression inhibitors, potency, dose response, plasminogen activation absorbance, OD405 (AID 1914); type: functional, Streptococcus pyogenes M1 GAS;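 further: secreted streptokinase activity via plasminogen activation per viability signal from cell pellet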
T1 sequence (P10520 whole entry): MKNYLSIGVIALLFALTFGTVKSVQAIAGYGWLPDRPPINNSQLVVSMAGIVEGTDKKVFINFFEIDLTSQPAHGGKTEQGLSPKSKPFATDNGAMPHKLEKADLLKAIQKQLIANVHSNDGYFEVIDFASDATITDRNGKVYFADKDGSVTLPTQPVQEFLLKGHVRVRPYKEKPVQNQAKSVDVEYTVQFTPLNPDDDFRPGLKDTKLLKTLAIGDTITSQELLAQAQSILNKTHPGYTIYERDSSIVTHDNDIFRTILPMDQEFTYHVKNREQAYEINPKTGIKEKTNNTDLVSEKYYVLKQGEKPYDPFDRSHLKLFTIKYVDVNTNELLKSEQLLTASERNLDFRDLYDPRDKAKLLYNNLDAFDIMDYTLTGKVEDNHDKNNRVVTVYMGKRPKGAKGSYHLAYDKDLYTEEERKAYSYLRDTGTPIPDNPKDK

Streptococcus = assay: Group A Streptococcus viability loss, dose response, counter-screen for streptokinase expression inhibitor project, luminescence, BacTiterGlo (AID 1915); type: functional, organism-based;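 further: potency for reduction of bacterial viability or growth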
[2] = molecular target: DNA (cytosine-5)-methyltransferase 1 (Homo sapiens, UniProt P26358); assay: DNMT1 methyltransferase inhibitors, confirmation, biochemical, fluorescent molecular beacon (AID 602386); type: functional
DNA (cytosine-5)-methyltransferase 1, sequence (P26358 whole entry): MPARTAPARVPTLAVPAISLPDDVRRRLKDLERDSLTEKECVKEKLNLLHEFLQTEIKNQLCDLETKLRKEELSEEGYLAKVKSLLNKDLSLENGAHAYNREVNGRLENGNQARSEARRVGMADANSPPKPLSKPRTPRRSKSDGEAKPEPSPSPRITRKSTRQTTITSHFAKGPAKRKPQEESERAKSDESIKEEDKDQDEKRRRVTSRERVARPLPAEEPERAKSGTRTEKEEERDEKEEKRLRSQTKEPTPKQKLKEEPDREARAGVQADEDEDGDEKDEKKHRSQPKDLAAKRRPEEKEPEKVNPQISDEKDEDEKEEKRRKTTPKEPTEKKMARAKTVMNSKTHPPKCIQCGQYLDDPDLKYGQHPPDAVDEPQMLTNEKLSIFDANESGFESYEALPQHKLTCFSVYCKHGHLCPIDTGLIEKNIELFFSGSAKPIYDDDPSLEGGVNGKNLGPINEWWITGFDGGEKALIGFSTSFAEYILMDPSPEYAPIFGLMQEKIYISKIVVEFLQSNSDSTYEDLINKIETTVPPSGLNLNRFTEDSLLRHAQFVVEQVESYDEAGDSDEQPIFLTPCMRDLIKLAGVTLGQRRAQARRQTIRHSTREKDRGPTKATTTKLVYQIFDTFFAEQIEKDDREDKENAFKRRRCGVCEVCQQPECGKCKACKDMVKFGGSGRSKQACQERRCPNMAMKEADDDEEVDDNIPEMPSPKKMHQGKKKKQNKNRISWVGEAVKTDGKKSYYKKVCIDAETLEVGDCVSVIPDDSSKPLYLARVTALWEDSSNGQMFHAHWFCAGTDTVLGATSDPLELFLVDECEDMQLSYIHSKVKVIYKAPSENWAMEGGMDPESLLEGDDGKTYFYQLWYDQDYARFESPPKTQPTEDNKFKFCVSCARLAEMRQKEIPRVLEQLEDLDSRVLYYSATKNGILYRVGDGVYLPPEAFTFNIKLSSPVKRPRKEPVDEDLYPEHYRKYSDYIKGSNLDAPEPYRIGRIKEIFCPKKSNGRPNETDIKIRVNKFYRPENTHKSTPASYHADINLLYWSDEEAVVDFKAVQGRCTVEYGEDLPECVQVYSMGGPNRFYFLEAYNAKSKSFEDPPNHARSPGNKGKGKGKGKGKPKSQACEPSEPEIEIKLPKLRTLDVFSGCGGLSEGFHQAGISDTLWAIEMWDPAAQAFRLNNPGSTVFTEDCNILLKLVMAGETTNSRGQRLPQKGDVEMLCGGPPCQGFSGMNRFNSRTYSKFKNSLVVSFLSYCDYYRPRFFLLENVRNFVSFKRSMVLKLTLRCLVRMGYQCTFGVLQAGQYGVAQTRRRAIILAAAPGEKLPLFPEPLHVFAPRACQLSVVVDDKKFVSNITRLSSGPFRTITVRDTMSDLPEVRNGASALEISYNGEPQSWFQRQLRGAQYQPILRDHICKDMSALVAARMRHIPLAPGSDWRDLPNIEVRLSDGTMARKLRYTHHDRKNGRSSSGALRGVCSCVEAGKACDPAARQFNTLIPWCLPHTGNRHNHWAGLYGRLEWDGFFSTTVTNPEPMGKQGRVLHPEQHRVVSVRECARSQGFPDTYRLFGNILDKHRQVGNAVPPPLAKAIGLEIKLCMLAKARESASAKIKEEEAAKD

[3] = molecular target: Adenosylmethionine-8-amino-7-oxononanoate aminotransferase (Mycobacterium tuberculosis, UniProt P9WQ81); assay: Mycobacterium tuberculosis BioA enzyme inhibitor Measured in Biochemical System Using Plate Reader - 2163-02_Inhibitor_Dose_CherryPick_Activity.; type: functional, Mycobacterium tuberculosis UT205
Adenosylmethionine-8-amino-7-oxononanoate aminotransferase, sequence (P9WQ81 whole entry): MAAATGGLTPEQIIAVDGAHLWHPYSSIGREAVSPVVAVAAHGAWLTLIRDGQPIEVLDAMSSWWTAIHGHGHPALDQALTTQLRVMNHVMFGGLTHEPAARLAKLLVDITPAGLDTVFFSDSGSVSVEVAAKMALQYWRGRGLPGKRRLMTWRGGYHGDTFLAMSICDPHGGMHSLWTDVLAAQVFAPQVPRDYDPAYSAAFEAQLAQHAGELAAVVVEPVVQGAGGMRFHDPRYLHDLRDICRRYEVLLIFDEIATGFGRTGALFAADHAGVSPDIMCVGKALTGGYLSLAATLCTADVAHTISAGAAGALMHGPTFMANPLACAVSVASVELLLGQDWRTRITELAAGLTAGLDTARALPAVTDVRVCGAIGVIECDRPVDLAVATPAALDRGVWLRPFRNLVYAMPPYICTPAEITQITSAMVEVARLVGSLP

Trypsin = Trypsin (Sus scrofa, UniProt P00761); assay: porcine trypsin inhibitors, dose response, selectivity assay for Rce1 protease inhibitor project, biochemical, quenched peptide fluorescence, cherry-pick (AID 488789)
Trypsin, sequence (P00761 whole entry): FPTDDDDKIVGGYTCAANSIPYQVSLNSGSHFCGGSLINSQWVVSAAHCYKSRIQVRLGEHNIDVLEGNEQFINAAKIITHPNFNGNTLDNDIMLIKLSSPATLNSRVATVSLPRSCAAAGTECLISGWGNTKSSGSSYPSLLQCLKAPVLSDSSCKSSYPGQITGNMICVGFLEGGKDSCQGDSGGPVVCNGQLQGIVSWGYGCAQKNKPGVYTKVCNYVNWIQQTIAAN

CAAX prenyl protease 2 [4] = molecular target: T2, CAAX prenyl protease 2 (Saccharomyces cerevisiae S288c, UniProt Q03530); type: biochemical
T2 sequence (Q03530 whole entry): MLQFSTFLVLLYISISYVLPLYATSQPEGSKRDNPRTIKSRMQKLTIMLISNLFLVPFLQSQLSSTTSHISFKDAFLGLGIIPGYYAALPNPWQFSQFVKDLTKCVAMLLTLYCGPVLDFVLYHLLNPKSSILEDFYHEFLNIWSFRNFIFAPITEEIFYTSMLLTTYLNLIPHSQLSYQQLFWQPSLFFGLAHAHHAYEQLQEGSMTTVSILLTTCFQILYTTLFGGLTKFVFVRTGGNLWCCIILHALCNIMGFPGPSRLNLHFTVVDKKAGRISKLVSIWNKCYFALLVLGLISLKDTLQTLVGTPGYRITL

CAAX prenyl protease 2 [5] = molecular target: T3, CAAX prenyl protease 2 (Homo sapiens, UniProt Q9Y256); assay: human Rce1 protease inhibitors, dose response, biochemical, yeast membranes, quenched-peptide fluorescence, cherry-pick (AID 588849)
T3 sequence (Q9Y256 whole entry): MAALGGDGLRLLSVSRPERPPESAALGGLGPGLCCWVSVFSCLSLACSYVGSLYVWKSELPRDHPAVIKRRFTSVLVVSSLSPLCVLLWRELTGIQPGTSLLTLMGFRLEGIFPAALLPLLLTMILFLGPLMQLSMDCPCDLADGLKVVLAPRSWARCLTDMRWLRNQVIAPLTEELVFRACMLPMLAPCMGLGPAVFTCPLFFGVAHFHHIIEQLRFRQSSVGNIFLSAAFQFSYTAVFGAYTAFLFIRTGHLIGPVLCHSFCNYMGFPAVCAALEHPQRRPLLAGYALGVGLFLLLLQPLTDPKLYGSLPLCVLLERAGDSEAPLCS

[6] = molecular target: Beta-2 adrenergic receptor (Homo sapiens, UniProt P07550); assay: beta2AR agonists driving receptor internalization, dose response, cell-based, FAP fluorogen, flow cytometry, cherry pick 1 (AID 588763); type: functional
Beta-2 adrenergic receptor, sequence (P07550 whole entry): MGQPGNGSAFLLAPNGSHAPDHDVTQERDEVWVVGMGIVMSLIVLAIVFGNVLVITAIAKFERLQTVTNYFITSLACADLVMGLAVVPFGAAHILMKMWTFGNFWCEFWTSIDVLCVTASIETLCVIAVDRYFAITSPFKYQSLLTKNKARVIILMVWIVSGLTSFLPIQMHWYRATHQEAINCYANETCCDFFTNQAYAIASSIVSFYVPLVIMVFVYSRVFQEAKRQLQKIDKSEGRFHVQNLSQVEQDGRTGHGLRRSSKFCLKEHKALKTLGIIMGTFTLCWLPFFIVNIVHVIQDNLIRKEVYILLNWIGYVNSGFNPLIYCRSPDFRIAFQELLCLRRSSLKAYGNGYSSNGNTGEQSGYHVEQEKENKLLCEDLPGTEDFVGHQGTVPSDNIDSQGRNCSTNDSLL

Caspase-3 = molecular target: T4, Caspase-3 (Homo sapiens, UniProt P42574); type: functional;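 further: Dose-response selectivity test against caspase-3 for candidate inhibitors of sentrin-specific proteases (SENPs)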
T4 sequence (P42574 whole entry): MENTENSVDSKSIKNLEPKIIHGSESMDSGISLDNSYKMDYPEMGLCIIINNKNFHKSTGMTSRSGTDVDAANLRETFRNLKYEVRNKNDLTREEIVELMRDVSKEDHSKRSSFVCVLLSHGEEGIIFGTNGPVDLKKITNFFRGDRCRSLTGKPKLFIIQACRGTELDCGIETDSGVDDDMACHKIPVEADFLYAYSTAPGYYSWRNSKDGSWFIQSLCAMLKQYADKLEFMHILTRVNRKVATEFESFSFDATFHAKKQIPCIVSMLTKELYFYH

[7] = molecular target: T5, Sentrin-specific protease 7 (Homo sapiens, UniProt Q9BQF6); type: functional;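 further: Luminescence-based dose-response confirmation of ultra-high-throughput screening hits, measuring inhibition of SENP7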
T5 sequence (Q9BQF6 whole entry): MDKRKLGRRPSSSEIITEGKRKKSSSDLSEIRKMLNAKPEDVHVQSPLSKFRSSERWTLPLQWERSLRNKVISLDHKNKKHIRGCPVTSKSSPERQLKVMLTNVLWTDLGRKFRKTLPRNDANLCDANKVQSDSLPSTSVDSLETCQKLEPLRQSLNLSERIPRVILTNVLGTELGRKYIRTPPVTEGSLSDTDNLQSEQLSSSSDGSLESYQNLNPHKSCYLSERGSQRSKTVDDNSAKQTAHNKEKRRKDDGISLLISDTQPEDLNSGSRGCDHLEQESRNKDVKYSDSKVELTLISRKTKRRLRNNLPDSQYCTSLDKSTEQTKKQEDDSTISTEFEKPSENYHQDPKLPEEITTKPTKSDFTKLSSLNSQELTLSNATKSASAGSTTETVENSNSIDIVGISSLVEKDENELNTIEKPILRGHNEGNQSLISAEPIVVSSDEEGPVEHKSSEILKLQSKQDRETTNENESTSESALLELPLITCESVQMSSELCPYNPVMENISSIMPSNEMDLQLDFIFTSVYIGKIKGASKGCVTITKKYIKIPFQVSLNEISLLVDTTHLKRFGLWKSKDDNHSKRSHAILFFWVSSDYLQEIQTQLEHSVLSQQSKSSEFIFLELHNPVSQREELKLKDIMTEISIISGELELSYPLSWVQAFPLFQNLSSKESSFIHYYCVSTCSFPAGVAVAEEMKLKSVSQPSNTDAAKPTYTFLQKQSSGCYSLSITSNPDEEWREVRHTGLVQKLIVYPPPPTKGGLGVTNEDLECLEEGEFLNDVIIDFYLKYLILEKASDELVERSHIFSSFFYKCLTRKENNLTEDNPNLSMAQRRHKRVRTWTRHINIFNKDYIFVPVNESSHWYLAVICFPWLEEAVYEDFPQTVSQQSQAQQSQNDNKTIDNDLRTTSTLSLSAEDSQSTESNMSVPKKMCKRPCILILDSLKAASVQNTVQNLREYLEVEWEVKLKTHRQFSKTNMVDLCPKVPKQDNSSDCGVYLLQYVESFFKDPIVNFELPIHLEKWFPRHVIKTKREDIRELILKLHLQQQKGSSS

[8] = molecular target: T6, Sentrin-specific protease 6 (Homo sapiens, UniProt Q9GZR1); type: functional;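 further: Luminescence-based dose-response confirmatory assay of SENP6 inhibition, following up an ultra-high-throughput screen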
T6 sequence (Q9GZR1 whole entry): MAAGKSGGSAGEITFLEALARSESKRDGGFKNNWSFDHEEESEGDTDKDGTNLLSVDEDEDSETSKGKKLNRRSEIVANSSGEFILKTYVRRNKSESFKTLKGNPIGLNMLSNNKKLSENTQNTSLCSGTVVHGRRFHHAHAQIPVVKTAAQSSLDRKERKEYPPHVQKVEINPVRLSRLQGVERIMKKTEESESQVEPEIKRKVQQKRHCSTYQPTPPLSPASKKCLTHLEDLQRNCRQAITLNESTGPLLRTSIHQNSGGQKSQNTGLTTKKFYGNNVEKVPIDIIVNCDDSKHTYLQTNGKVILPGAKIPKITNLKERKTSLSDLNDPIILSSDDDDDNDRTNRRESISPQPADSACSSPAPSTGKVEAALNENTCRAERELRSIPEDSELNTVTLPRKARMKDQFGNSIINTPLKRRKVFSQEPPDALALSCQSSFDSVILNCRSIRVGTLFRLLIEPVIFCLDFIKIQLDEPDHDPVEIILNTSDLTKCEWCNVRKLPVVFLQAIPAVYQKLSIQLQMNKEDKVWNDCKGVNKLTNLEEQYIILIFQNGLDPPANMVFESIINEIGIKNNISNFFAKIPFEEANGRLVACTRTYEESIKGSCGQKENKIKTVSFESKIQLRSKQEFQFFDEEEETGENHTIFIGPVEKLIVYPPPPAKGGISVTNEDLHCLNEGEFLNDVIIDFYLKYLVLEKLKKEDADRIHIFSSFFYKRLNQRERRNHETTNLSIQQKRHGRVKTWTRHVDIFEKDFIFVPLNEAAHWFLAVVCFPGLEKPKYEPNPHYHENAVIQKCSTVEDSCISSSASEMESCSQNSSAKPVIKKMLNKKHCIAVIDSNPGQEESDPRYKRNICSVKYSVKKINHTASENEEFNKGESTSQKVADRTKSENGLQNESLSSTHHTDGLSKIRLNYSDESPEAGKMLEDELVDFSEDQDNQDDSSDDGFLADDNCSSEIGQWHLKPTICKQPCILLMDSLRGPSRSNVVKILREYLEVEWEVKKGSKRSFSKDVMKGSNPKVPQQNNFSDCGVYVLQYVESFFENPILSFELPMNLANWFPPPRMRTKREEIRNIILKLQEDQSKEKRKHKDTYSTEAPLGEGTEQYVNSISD

[9] = molecular target: T7, Sentrin-specific protease 8 (Homo sapiens, UniProt Q96LD8); type: functional;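 further: luminescence read-out of SENP8 inhibition, dose-response confirmation following an ultra-high-throughput screen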
T7 sequence (Q96LD8 whole entry): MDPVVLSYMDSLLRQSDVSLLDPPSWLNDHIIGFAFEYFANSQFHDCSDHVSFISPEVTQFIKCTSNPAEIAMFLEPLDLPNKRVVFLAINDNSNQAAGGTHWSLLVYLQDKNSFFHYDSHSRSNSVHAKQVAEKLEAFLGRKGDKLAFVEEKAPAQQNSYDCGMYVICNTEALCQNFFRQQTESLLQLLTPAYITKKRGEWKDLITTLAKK

[10] = molecular target: Mitochondrial peptide methionine sulfoxide reductase (Bos taurus, UniProt P54149); assay: Absorbance-based biochemical high throughput dose response assay for activators of Methionine sulfoxide reductase A (MsrA).; type: functional
Mitochondrial peptide methionine sulfoxide reductase, sequence (P54149 whole entry): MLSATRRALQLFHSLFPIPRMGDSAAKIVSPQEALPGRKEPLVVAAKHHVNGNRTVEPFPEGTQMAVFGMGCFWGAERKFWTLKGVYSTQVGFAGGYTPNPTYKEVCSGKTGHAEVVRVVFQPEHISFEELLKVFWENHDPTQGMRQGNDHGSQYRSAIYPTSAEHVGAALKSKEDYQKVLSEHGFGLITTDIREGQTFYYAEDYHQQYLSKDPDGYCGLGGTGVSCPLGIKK

[11] = molecular target: DNA dC->dU-editing enzyme APOBEC-3A (Homo sapiens, UniProt P31941); assay: Dose Response confirmation of small molecule APOBEC3A DNA Deaminase Inhibitors via a fluorescence-based single-stranded DNA deaminase assay. [Related pubchem assays (depositor defined):AID493011, AID493024]; type: functional
DNA dC->dU-editing enzyme APOBEC-3A, sequence (P31941 whole entry): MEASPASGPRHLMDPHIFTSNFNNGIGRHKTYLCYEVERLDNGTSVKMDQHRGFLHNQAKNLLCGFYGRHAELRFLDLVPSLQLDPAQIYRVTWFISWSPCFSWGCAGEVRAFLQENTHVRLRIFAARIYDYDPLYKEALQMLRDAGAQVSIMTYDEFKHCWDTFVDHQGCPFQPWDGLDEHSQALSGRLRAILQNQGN

[12] = molecular target: DNA dC->dU-editing enzyme APOBEC-3G (Homo sapiens, UniProt Q9HC16); type: functional;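 further: Dose-response counterscreen measuring inhibition of APOBEC3G DNA deaminase activity, run while confirming APOBEC3A inhibitors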
DNA dC->dU-editing enzyme APOBEC-3G, sequence (Q9HC16 whole entry): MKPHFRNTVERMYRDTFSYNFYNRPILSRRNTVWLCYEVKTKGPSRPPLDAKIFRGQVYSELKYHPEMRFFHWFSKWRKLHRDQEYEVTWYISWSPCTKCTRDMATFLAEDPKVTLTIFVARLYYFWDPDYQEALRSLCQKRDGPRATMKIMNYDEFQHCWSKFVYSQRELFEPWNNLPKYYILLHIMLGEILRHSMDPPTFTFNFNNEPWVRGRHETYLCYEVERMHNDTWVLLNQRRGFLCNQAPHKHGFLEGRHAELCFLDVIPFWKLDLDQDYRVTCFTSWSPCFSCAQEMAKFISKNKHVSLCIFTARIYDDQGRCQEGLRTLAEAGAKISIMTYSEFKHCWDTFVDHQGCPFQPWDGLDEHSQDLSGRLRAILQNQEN

[13] = molecular target: Melanin-concentrating hormone receptor 1 (Homo sapiens, UniProt Q99705); assay: Late-stage fluorescence-based counterscreen for antagonists of the G-protein coupled receptor 7 (GPR7): cell-based dose response assay to identify antagonists of the melanin-concentrating hormone receptor 1 (MCHR1) Set 6.; type: functional
Melanin-concentrating hormone receptor 1, sequence (Q99705 whole entry): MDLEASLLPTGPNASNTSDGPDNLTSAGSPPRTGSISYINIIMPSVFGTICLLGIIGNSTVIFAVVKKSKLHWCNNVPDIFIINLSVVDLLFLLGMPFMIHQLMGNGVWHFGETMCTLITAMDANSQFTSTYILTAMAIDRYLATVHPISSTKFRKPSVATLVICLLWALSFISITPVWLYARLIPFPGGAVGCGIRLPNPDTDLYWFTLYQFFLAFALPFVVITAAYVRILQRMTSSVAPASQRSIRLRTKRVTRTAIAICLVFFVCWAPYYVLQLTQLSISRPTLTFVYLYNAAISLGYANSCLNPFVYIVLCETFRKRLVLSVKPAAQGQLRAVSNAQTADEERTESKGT

[14] = molecular target: T8, Neuropeptides B/W receptor type 1 (Homo sapiens, UniProt P48145); assay: GPR7 antagonist potency, late-stage follow-up, cell-based, fluorescence, dose response, set 6 (AID 588583); type: functional
T8 sequence (P48145 whole entry): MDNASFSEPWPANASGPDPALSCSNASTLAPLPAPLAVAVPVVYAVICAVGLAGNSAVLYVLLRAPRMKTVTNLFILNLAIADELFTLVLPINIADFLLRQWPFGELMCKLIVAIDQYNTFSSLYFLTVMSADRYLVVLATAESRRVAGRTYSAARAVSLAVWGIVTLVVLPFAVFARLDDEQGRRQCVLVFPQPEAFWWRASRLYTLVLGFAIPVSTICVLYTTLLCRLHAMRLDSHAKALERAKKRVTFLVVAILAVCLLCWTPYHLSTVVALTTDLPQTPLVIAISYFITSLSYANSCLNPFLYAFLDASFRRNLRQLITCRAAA

[15] = AlphaScreen signal interference compounds, dose response, artefact control for ARNT-TACC3 interaction inhibitor project, biochemical, luminescence, cherry-pick (AID 651705); type: functional;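 further: AlphaScreen bead proximity signal that flags compounds interfering with the detection technology; potency reflects signal decrease which marks the compound as an assay artifact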
[16] = NIH-3T3 fibroblast cytotoxicity, dose response, cytotoxicity control for antifungal single agent project, cell-based, Alamar Blue, dry powder (AID 602188); type: functional

## O=C(O)C(c1ccccc1)N1C(=O)/C(=C\c2ccc(-c3ccc(Br)cc3)o2)SC1=S (stereo unspecified)
[1]
  EC50: 1.81 µM (active)
Streptokinase A
  EC50: 1.55 µM (active)
Streptococcus
  EC50: 2.51 µM (active)
[2]
  IC50: 4.08 µM (active)

## CCOc1ccc(C(=O)Nc2cc3c(cc2N2CCCC2)n(CC)c(=O)n3CC)cc1OCC
[3]
  AC50: 6.03 µM (active)

## CC(C)OC(=O)c1c(N)n(CCCN2CCOCC2)c2nc3ccccc3nc12
Trypsin
  AC50: 6.98 µM (active)
CAAX prenyl protease 2 [4]
  AC50: 11.9 µM (active)
CAAX prenyl protease 2 [5]
  AC50: 4.27 µM (active)

## COC(=O)c1cc([N+](=O)[O-])c(-n2cncn2)c([N+](=O)[O-])c1
[6]
  EC50: 19 µM (inactive)

## O=C(COC(=O)c1ccc([N+](=O)[O-])s1)NCc1ccc(F)cc1
Caspase-3
  IC50: 9.32 µM (active)
[7]
  IC50: 6.18 µM (active)
[8]
  IC50: 3.68 µM (active)
[9]
  IC50: 3.72 µM (active)
[10]
  EC50: 27.2 µM (inactive)

## CCn1c(SCC(=O)N2CCCC2)nnc1-c1ccc(N)cc1
[11]
  IC50: 2.31 µM (active)
[12]
  IC50: 2.75 µM (active)
[6]
  EC50: 2.07 µM (active)

## NC(=O)N1N=C2/C(=C/c3ccccc3)CCCC2C1c1ccccc1 (stereo unspecified)
Trypsin
  AC50: 10.8 µM (active)
CAAX prenyl protease 2 [4]
  AC50: 9.14 µM (active)
CAAX prenyl protease 2 [5]
  AC50: 12.1 µM (active)

## Cc1ccc(C(C#N)c2c(Br)cnn(Cc3cccc4ccccc34)c2=O)cc1 (stereo unspecified)
[13]
  IC50: 0.219 µM (active)
[14]
  IC50: 0.219 µM (active)

## COc1ccc(C(C#N)c2c(Br)cnn(Cc3cccc4ccccc34)c2=O)cc1 (stereo unspecified)
[13]
  IC50: 0.131 µM (active)
[14]
  IC50: 0.131 µM (active)

## Oc1c(/C=N/CCCn2ccnc2)c(-c2ccccc2)nn1-c1nc2ccccc2s1
[15]
  AC50: 99.5 µM (active)

## Cc1ccc(C(=O)Nc2nc(-c3ccccn3)cs2)cc1
[16]
  AC50: 9.7 µM (active)
